Results on 16 molecules are retold here after patent US20260085062A1, “NOVEL COMPOUNDS AS CK2 INHIBITORS” (Cambridge Enterprise Limited, priority 2022, published 2026).

Test [1] addresses T1, CK2α (Homo sapiens, UniProt P68400).
T1 construct: CK2α (residues 2-329) was produced in Escherichia coli BL21 (DE3) for kinase activity screening; His6 (N, cleaved yes); made in house; host or cells: Escherichia coli BL21 (DE3)
T1 sequence (P68400 2-329): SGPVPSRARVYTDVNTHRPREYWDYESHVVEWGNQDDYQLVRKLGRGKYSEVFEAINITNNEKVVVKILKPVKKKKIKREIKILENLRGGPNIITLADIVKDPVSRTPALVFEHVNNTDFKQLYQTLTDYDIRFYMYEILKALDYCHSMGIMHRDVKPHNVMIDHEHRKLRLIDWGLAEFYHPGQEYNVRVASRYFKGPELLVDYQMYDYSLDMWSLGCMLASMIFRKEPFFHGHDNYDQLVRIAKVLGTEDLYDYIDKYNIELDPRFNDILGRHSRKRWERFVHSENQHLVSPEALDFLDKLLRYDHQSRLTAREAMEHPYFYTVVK
In words: Biochemical assay for inhibitors of CK2α kinase activity (ADP-Glo). The following applies: 0.2 nM CK2α, 50 μM peptide substrate, 15 μM ATP, read-out: Assay 1: CK2α Enzyme IC50. How it is done:
The inhibitory activity of putative kinase inhibitors and the potency of selected compounds were determined using ADP-Glo™ assay. The kinase reaction was performed in the presence of excess peptide substrate and ATP at a concentration equivalent to Km. Upon termination of the kinase reaction, remaining ATP was depleted leaving only ADP reaction product, which was converted back to ATP with a coupled luciferin/luciferase reaction. The luminescent output from the coupled reaction was quantified and correlated with the kinase activity. […] Single colonies of the cells were grown in 6×1 L of 2×TY with 100 μg/mL ampicillin at 37° C. […] The cells were incubated overnight at 25° C. then harvested by centrifugation at 4,000 g for 20 minutes. The cell pellets were suspended in 20 mM Tris, 500 mM NaCl, pH 8.0 and lysed using a high pressure homogenizer. Protease inhibitor cocktail tablets (one tablet per 50 mL extract; Roche Diagnostics) and DNase I were then added. The crude cell extract was then centrifuged at 10,000 g for 45 minutes, the supernatant was filtered with a 0.22 μm filter. The soluble supernatant was applied on a Ni Sepharose Fast Flow6 column at pH 8.0, washed and eluted in 20 mM Tris pH 8.0, 500 mM NaCl, 200 mM imidazole. […] The cleaved protein was further purified on a Sepharose Q HP anion-exchange column and the main peak fraction from this column was further purified by gel filtration on a Superdex 75 16/60 HiPrep column equilibrated with Tris 20 mM, pH 8.0, 500 mM NaCl. Pure protein was concentrated to 15 mg/mL and flash frozen in liquid nitrogen. […] The assay was conducted as follows: • 1. […] After 120 minutes, the reaction was stopped by addition of 5 pl ADP-Glo reagent (Promega V9102) and the plate incubated at RT for a further 60 minutes. • 5. 10 μL of Kinase Detection reagent (Promega V9102) was added to assay plate and incubated for a further 30 minutes prior to reading luminescence on an Envision (Perkin-Elmer). Data was analysed to calculate compound IC50and Ki as follows: • 1. […] Percent activity was calculated for each well using: (Test well reading−MEAN100%inhibition control wells)/(MEAN0% inhibition control wells−MEAN100%inhibition control wells). • 5. Morrison Ki was determined using Morrison Ki equation (XL-fit).
For orientation: ADP-Glo first removes unused ATP, then detects ADP through luciferase.

The target of test [2] is T2, CLK2 (Homo sapiens, UniProt P49760).
T2 construct: purchased Carna Biosciences 04-127
In words: Biochemical assay for inhibitors of CLK2 kinase activity (ADP-Glo). To be noted: 20 nM CLK2, 50 μM peptide substrate, 100 μM ATP, read-out: Assay 2: CLK2 Enzyme IC50. How it is done: The inhibitory activity of putative kinase inhibitors and the potency of selected compounds were determined using ADP-GloTM assay. The kinase reaction was performed in the presence of excess peptide substrate and ATP at a concentration equivalent to Km. Upon termination of the kinase reaction, remaining ATP was depleted leaving only ADP reaction product, which was converted back to ATP with a coupled luciferin/luciferase reaction. The luminescent output from the coupled reaction was quantified and correlated with the kinase activity. […] The assay was conducted as follows: • 1. […] After 120 minutes, the reaction was stopped by addition of 5 pl ADP-Glo reagent (Promega V9102) and the plate incubated at RT for a further 60 minutes. • 5. 10 μL of Kinase Detection reagent (Promega V9102) was added to assay plate and incubated for a further 30 minutes prior to reading luminescence on an Envision (Perkin-Elmer). Data was analysed to calculate compound IC50and Ki as follows: • 1. […] Morrison Ki was determined using Morrison Ki equation (XL-fit).

Test [3] concerns the target T3, intracellular CK2α (Homo sapiens, UniProt P19784).
T3 construct: host or cells: HCT116 (ATCC CCL-247)
In words: Cell-based NanoBRET assay for inhibitor binding to intracellular CK2α. The following applies: HCT116 cells transiently transfected with CSNK2A2-NanoLuc fusion vector; Tracer K-5; 2 h; read-out: Assay 3: NanoBRET ™ assay for binding to intracellular CK2α. How it is done:
This assay used the NanoBRET™ System (Promega), an energy transfer technique designed to measure molecular proximity in living cells. The assay measured the apparent affinity of test compounds by competitive displacement of a NanoBRET™ tracer reversibly bound to a NanoLucR luciferase CK2α fusion protein in cells. A fixed concentration of tracer was added to cells expressing the desired NanoLucR-CK2α fusion protein to generate a BRET reporter complex. […] Donor emission wavelength (450 nm) and acceptor emission wavelength (610 nm or 630 nm) were measured on the Envision (Perkin-Elmer) and BRET ratio calculated for data analysis: BRET Ratio=(Acceptorsample/Donorsample)×1,000. • 7.
For orientation: BRET reads energy transfer from a luciferase to a nearby fluorophore.

pIC50: −log10 of the molar value.

T3 sequence (P19784 whole entry): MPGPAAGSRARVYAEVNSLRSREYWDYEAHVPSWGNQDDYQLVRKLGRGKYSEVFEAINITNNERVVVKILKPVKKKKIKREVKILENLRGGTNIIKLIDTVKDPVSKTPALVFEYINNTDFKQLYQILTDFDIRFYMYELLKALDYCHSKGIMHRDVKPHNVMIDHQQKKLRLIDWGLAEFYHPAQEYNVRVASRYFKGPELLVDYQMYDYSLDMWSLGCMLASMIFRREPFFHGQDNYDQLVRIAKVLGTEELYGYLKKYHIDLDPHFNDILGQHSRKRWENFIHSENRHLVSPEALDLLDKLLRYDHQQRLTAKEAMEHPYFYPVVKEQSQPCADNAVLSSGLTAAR
T2 sequence (P49760 whole entry): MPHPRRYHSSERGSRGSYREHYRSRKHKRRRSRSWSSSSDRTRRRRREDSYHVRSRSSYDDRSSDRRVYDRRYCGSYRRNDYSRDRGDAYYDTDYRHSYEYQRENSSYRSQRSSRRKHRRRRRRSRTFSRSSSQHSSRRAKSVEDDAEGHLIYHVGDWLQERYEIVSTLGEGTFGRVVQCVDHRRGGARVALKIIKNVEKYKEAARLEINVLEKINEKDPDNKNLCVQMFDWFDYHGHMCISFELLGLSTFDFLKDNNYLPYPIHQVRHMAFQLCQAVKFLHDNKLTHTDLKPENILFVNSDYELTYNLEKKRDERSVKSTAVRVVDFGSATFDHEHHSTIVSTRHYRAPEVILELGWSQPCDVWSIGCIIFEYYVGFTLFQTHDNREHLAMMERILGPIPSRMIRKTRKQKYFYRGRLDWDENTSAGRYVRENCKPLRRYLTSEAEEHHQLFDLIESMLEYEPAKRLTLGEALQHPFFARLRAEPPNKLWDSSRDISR

Regarding `O=C(CCNCc1ccc(OC(F)(F)F)c(Cl)c1)NCCCNc1cc(-c2cc[nH]c(=O)c2)cc2[nH]ncc12` [Example 31, 3-((3-chloro-4-(trifluoromethoxy)benzyl)amino)-N-(3-((6-(2-oxo-1,2-dihydropyridin-4-yl)-1H-indazol-4-yl)amino)propyl)propanamide], the pIC50 is 9.49 in test [1], 6.28 in test [2] and 6.12 in test [3].
For `O=C(CCNCc1ccc(OC(F)(F)F)c(Cl)c1)NCCCNc1cc(-c2cnns2)cc2[nH]ncc12` [Example 32, N-(3-((6-(1,2,3-thiadiazol-5-yl)-1H-indazol-4-yl)amino)propyl)-3-((3-chloro-4-(trifluoromethoxy)benzyl)amino)propanamide], the pIC50 in test [1] is 9.33; in test [2], 7.12; in test [3], 7.75.
The corresponding values for `O=C(CCNCc1ccc(OC(F)(F)F)c(Cl)c1)NCCCNc1cc(-n2cnnc2)cc2[nH]ncc12` [Example 33, N-(3-((6-(4H-1,2,4-triazol-4-yl)-1H-indazol-4-yl)amino)propyl)-3-((3-chloro-4-(trifluoromethoxy)benzyl)amino)propanamide] are 9.32, 7.11 and 6.34.
With `O=C(CCNCc1n[nH]c(-c2ccccc2)c1Cl)NCCCNc1cc(-n2cnnc2)cc2[nH]ncc12` [Example 34, N-(3-((6-(4H-1,2,4-triazol-4-yl)-1H-indazol-4-yl)amino)propyl)-3-(((4-chloro-5-phenyl-1H-pyrazol-3-yl)methyl)amino)propanamide], the pIC50 in test [1] was 8.48; in test [2], 7.15; in test [3], 5.00.
The corresponding values for `O=C(CCNCc1cccc(CO)c1)NCCCNc1cc(-n2cnnc2)cc2[nH]ncc12` [Example 35, N-(3-((6-(4H-1,2,4-triazol-4-yl)-1H-indazol-4-yl)amino)propyl)-3-((3-(hydroxymethyl)benzyl)amino)propanamide] are 7.76, 6.95 and under 4.30.
The corresponding values for `Cn1c(CNCCC(=O)NCCCNc2cc(-n3cnnc3)cc3[nH]ncc23)cc2ccc(Cl)cc21` [Example 36, N-(3-((6-(4H-1,2,4-triazol-4-yl)-1H-indazol-4-yl)amino)propyl)-3-(((6-chloro-1-methyl-1H-indol-2-yl)methyl)amino)propanamide] are 8.86, 7.31 and 5.86.
The corresponding values for `O=C(CCNCc1cc2ccc(Cl)cc2[nH]1)NCCCNc1cc(-n2cnnc2)cc2[nH]ncc12` [Example 37, N-(3-((6-(4H-1,2,4-triazol-4-yl)-1H-indazol-4-yl)amino)propyl)-3-(((6-chloro-1H-indol-2-yl)methyl)amino)propanamide] are 9.11, 7.51 and 6.02.
For the molecule `Cn1c(CNCCC(=O)NCCCNc2cc(-n3cnnc3)cc3[nH]ncc23)cc2cc(C(F)(F)F)ccc21` [Example 38, N-(3-((6-(4H-1,2,4-triazol-4-yl)-1H-indazol-4-yl)amino)propyl)-3-(((1-methyl-5-(trifluoromethyl)-1H-indol-2-yl)methyl)amino)propanamide], the pIC50 in test [1] is 9.28; in test [2], 6.92; in test [3], 6.10.
Turning to `N#Cc1cc(CNCCC(=O)NCCCNc2cc(-n3cnnc3)cc3[nH]ncc23)ccc1OC1CCC1` [Example 39, N-(3-((6-(4H-1,2,4-triazol-4-yl)-1H-indazol-4-yl)amino)propyl)-3-((3-cyano-4-cyclobutoxybenzyl)amino)propanamide], the pIC50 was 9.55 in test [1], 7.20 in test [2] and 5.68 in test [3].
The corresponding values for `O=C(CCNCc1cccc(CCO)c1)NCCCNc1cc(-n2cnnc2)cc2[nH]ncc12` [Example 40, N-(3-((6-(4H-1,2,4-triazol-4-yl)-1H-indazol-4-yl)amino)propyl)-3-((3-(2-hydroxyethyl)benzyl)amino)propanamide] are 8.04, 7.06 and under 4.30.
The corresponding values for `O=C(CCNCc1ccc(OC2CCC2)c(CO)c1)NCCCNc1cc(-n2cnnc2)cc2[nH]ncc12` [Example 41, N-(3-((6-(4H-1,2,4-triazol-4-yl)-1H-indazol-4-yl)amino)propyl)-3-((4-cyclobutoxy-3-(hydroxymethyl)benzyl)amino)propanamide] are 9.24, 7.11 and 5.12.
The corresponding values for `O=C(CCNCc1cccc(OCCO)c1)NCCCNc1cc(-n2cnnc2)cc2[nH]ncc12` [Example 42, N-(3-((6-(4H-1,2,4-triazol-4-yl)-1H-indazol-4-yl)amino)propyl)-3-((3-(2-hydroxyethoxy)benzyl)amino)propanamide] are 8.16, 7.08 and under 4.30.
`O=C(CCNCc1cc(Cl)cc(CO)c1)NCCCNc1cc(-n2cnnc2)cc2[nH]ncc12` [Example 43, N-(3-((6-(4H-1,2,4-triazol-4-yl)-1H-indazol-4-yl)amino)propyl)-3-((3-chloro-5-(hydroxymethyl)benzyl)amino)propanamide]: the pIC50 in test [1] is 9.21; in test [2], 7.42; in test [3], 4.69.
The corresponding values for `O=C(CCNCc1ccc(OC(F)(F)F)c(CO)c1)NCCCNc1cc(-n2cnnc2)cc2[nH]ncc12` [Example 44, N-(3-((6-(4H-1,2,4-triazol-4-yl)-1H-indazol-4-yl)amino)propyl)-3-((3-(hydroxymethyl)-4-(trifluoromethoxy)benzyl)amino)propanamide] are 8.84, 7.40 and 4.78.
As to `N#Cc1cc(CNCCC(=O)NCCCNc2cc(-n3cnnc3)cc3[nH]ncc23)ccc1C1CC1` [Example 45, N-(3-((6-(4H-1,2,4-triazol-4-yl)-1H-indazol-4-yl)amino)propyl)-3-((3-cyano-4-cyclopropylbenzyl)amino)propanamide], the figures for the pIC50 in test [1], in test [2] and in test [3] were 9.02, 6.91 and 5.20, respectively.
The corresponding values for `N#Cc1cc(CNCCC(=O)NCCCNc2cc(-n3cnnc3)cc3[nH]ncc23)ccc1OC(F)(F)F` [Example 46, N-(3-((6-(4H-1,2,4-triazol-4-yl)-1H-indazol-4-yl)amino)propyl)-3-((3-cyano-4-(trifluoromethoxy)benzyl)amino)propanamide] are 8.58, 6.63 and 4.87.
